{
  "source": "patent US11135163B2",
  "about": "“Peptide hydrogel properties and its applications” (Kansas State University Research Foundation, priority 2014, dated 2021)",
  "format_in_all_cases": "physicochemical",
  "key": {"[1]": {"assay": "h9e-2i medium hydrogel rheology and stability", "description": "Two different types of stem cell mediums were selected for this test. One is a low glucose DMEM medium with 2% (v/v) Fetal Bovine Serum (FBS) for Mesenchymal Stromal Cell (MSC medium). The other one is a N2B27 supplemented serum-free 2i medium with 0.5% (v/v) Bovine Serum Albumin (BSA) for rat Embryonic Stem Cell (ESC, 2i medium). The hydrogel formation process was monitored under a time sweep rheological test for 1 hour. The special shear-thinning and self-healing property of h9e peptide hydrogel was also tested. […] In addition, the stability of hydrogel as well as the peptide solution before the hydrogel formation was also tested.\nThe h9e peptide was synthesized according to the method mentioned above. Lyophilized peptide was added to 100 mM sodium bicarbonate and completely dissolved by magnetic stirring for 3 hours with a final peptide concentration of 10 mM. For hydrogelation, peptide solution was added into MSC medium or 2i medium and the mixture was hand-shaken for about 10 seconds or gently pipette mixed 3 times. The final peptide concentrations were 1, 2, and 3 mM.\nThe storage and loss moduli (G′ and G″, respectively) of h9e hydrogels were determined on a C-VOR 150 rheometer system (Malvern instruments, Malvern, Worcestershire WR141XZ, United Kingdom) with a 20-mm diameter parallel plate geometry and 500 μm gap size at 37° C. The methods for hydrogel formation test and shear-thinning and self-healing test were the same as the methods of cancer cell medium mentioned above. After 24 hours of hydrogel formation, 2 mM peptide hydrogel was diluted 20 fold by adding cell culture medium and thorough mixing by pipette. The diluted solution was transferred to rheometer system and tested under 1 Hz frequency and 1% shear strain at 4° C. for 1 hour.\nThe stability of h9e-2i medium hydrogel was tested. A plastic tray was placed on the bottom of the well plate. Next, 1 wt % h9e solution was mixed with 2i medium at 1:1 (v:v) ratio in a centrifuge tube and then transferred into the well plate. There was 500 μl peptide hydrogel for each well. The well plate was then placed in an incubator for 1 hour. After hydrogel was stable, another 500 μl of 2i medium was slowly added on the top of hydrogel. The top medium was replaced every other day. For mechanical testing, the top 2i medium was removed and hydrogel was transferred to a dynamic rheometer using the tray. The stability of the peptide solution was also tested using 1 wt % peptide solution stored in 4° C. refrigerator for up to 24 days. Part of the peptide solution was taken out and mixed with 2i medium with 1:1 (v:v) ratio on days 1, 6, 18 and 24. The hydrogel formation process was monitored under the single frequency (1 Hz) rheological test with 1% shear strain for 1 hour."}, "[2]": {"assay": "Instantaneous gelation time sweep of peptide sequences 1, 3 and 4", "settings": "triggered with 100 mM CaCl2 solution (FIG. 12, 13)", "description": "Similar to the methods used in U.S. 2013/0018004. Hydrogels were prepared with peptide 1, 3, and 4 alone, or mixture of peptide sequence 1 and 4 at 1:1 ratio. Hydrogels were triggered by calcium ions and BSA alone or co-trigger (calcium ions+BSA)."}, "[3]": {"assay": "Hydrogelation and dynamic rheology of h9e in MEM", "settings": "for stable storage modulus: 37° C.", "description": "Lyophilized peptide was added to 100 mM sodium bicarbonate and completely dissolved by magnetic stirring for 3 hours with a final peptide concentration of 10 mM. For hydrogelation, peptide solution was added into MEM with 10% FBS and the mixture was hand-shaken for about 10 seconds. The peptide hydrogel formed within 15 minutes at room temperature with final peptide concentrations of 1, 2, and 3 mM. The storage and loss moduli (G′ and G″, respectively) of h9e hydrogels were determined on a C-VOR 150 rheometer system (Malvern instruments, Malvern, Worcestershire WR141XZ, United Kingdom) with a 20-mm diameter parallel plate geometry and 500 μm gap size. To mimic cell physiological conditions, all rheological tests were performed at 37° C. unless otherwise specified. The peptide and MEM mixture was placed on the measuring system immediately after mixing for a gel-forming rate test. Single frequency (1 Hz) and steady shear strain (1%) were selected for a 1 hour test. To determine the hydrogel reassembly capability, the peptide and MEM mixture was incubated at room temperature overnight for hydrogelation, then transferred to a lower measuring plate for a 10 minute, single-frequency test (1 Hz, 1% strain) for stabilization. The hydrogel was broken using 1 Hz frequency and 500% shear strain for 1 minute. Resetting the instrument parameters took 1 minute, and the hydrogel moduli during the reassembly period were measured under 1 Hz frequency and 1% shear strain for 1 hour. The amplitude sweep test (strain from 1 to 500%, 1 Hz frequency) was conducted multiple times to determine hydrogel reassembly capability after each time it was destroyed. Four testing cycles were applied in this measurement and the hydrogel recovery time between every two cycles was 1, 5, and 10 minutes. Furthermore, to test the response to different environmental temperatures, the peptide hydrogel was measured under a temperature profile test with steady oscillatory frequency (1 Hz) and strain (1%). The temperature was adjusted from 4° C. to 50° C. for two testing cycles. For each cycle, the instrument's heating or cooling processes took 5 minutes, then another 5 minutes to arrive at the setting temperature (4° C. or 50° C.). To determine the G′ and G″ of hydrogel during cell isolation, 3 mM peptide hydrogel was diluted 15 times with MEM. After thorough mixing, the diluted solution was tested under 1 Hz frequency and 1% shear strain at 4° C. for 1 hour."}, "[4]": {"assay": "Comparison of material properties of 3D cell culture hydrogels"}, "[5]": {"assay": "Oxygen transmission rate (OTR) of hydrogel", "description": "Hydrogel: 1% h9e peptide was prepared in sodium bicarbonate solution, and 1% BSA was prepared in PBS solution as trigger solution. The h9e peptide solution and BSA solution was mixed at 1:1 volume ratio, and incubated at 37 C for 30 min to prepare hydrogel with 0.5% h9e peptide concentration and 0.5% BSA with a gel strength of about 450 Pa.\nOxygen transmission rate (OTR): The OTR of hydrogels is another important property for in vitro tissue and organ regeneration process. Standard PGmatrix hydrogels was used in this experiment. OTR is the steady state rate at which oxygen gas permeates through a material at specified conditions of temperature and relative humidity. Values are expressed in cc/m2/24 hr in metric units determined by MOCON, Inc. (Minneapolis, […].) for OTR measurement using OX-TRAN instrument according to the standard method. Both challenge gas (oxygen) and sweeper gas (nitrogen) was held at relatively humidity of 100% to avoid gel drying, and temperature will be kept at ambient. 3.75 ml hydrogel was used and spread into thin film to cover the 5 cm^2-area. Experiments were duplicated twice."}},
  "note": "Read-outs that look alike come from different tables or passages of the source.",
  "data": [
    {"substance": "H-FLIVIGSIIGPGGDGPGGD-NH2 [h9e, FLIVIGSIIGPGGDGPGGD]", "values": [
      {"measurement": "stability of h9e solution", "setting": "[1]", "result": "exceed 2 months"},
      {"measurement": "G′", "setting": "[1]; 1 mM h9e-2i hydrogel", "result": "about 100 Pa"},
      {"measurement": "G′ after shearing into liquid state", "setting": "[1]; 2 mM h9e-2i hydrogel", "result": "< 0.2", "unit": "Pa"},
      {"measurement": "stable G′", "setting": "[1]; 2 mM h9e-2i hydrogel", "result": 600, "unit": "Pa"},
      {"measurement": "mechanical strength restored", "setting": "[1]; 2 mM h9e-2i hydrogel, within a few minutes of recovery test", "result": 100, "unit": "%"},
      {"measurement": "stable G′", "setting": "[1]; 3 mM h9e-2i hydrogel", "result": 600, "unit": "Pa"},
      {"measurement": "G′ of h9e-2i hydrogel during 7 days (stability)", "setting": "[1]; 1 wt % h9e solution mixed 1:1 with 2i medium", "result": "130-160 Pa"},
      {"measurement": "stability of h9e solution", "setting": "[1]; stored at 4° C. for 24 days, then mixed with 2i medium", "result": "could still form a hydrogel"},
      {"measurement": "final gel strength after 30 minute gelation time sweep", "setting": "[2]", "result": 240, "unit": "Pa"},
      {"measurement": "stable storage modulus", "setting": "[3]; 1 mM h9e in MEM", "result": "around 100 Pa"},
      {"measurement": "gel strength recovered", "setting": "[3]; 1 mM hydrogel, waiting time 1 min", "result": "about 73%"},
      {"measurement": "gel strength recovered", "setting": "[3]; 1 mM, after three shear-thinning cycles and 10 min waiting", "result": 83, "unit": "%"},
      {"measurement": "stable storage modulus", "setting": "[3]; 2 mM h9e in MEM", "result": "~400", "unit": "Pa"},
      {"measurement": "gel strength recovered", "setting": "[3]; 2 mM hydrogel, waiting time 1 min", "result": "~76", "unit": "%"},
      {"measurement": "gel strength recovered", "setting": "[3]; 2 mM, after three shear-thinning cycles and 10 min waiting", "result": 84, "unit": "%"},
      {"measurement": "stable storage modulus", "setting": "[3]; 3 mM h9e in MEM", "result": "~700", "unit": "Pa"},
      {"measurement": "gel strength recovered", "setting": "[3]; 3 mM hydrogel, waiting time 1 min", "result": "~88", "unit": "%"},
      {"measurement": "gel strength recovered", "setting": "[3]; 3 mM, after three shear-thinning cycles and 10 min waiting", "result": 100, "unit": "%"},
      {"measurement": "time to reach self-supporting strength (close or above 100 Pa)", "setting": "[3]; 1, 2 and 3 mM h9e in MEM", "result": "≤ 15", "unit": "min"},
      {"measurement": "G′ after shear-thinning", "setting": "[3]; 1-3 mM hydrogels, 500% strain for 1 minute", "result": "lower than 0.2 Pa"},
      {"measurement": "time to self-supporting hydrogel matrix", "setting": "[3]; h9e solution added into MEM with 10% serum", "result": "≤ 1", "unit": "min"},
      {"measurement": "G′ at 50° C. relative to 4° C.", "setting": "[3]; temperature profile test, 1-3 mM hydrogels", "result": "2-3 times"},
      {"measurement": "Porosity", "setting": "[4]", "result": "50-200 nm"},
      {"measurement": "OTR", "setting": "[5]; 0.5% h9e, 0.5% BSA hydrogel, 100% relative humidity, ambient temperature", "result": "3,984 cc/m^2-day"},
      {"measurement": "OT rate", "setting": "[5]; h9e hydrogel at 0.5% peptide concentration", "result": "about 3,984 cc/m^2 per day"}
    ]}
  ]
}
